These results are taken from patent US20250114313A1, “OLIGO-BENZAMIDE ANALOGS AND THEIR USE IN CANCER TREATMENT” (BOARD OF REGENTS, THE UNIVERSITY OF TEXAS SYSTEM, priority 2022, published 2025).

“Also recorded” adds a separate entry of the source. Like-named read-outs stand apart in the source and are kept apart here.

Data set [1] deals with ERα-positive breast cancer cells (MCF-7, ZR-75). The data set is described as follows: MTT cell viability, ERα-positive breast cancer cells. Format: cell-based, Human. The following applies: MCF-7 and ZR-75, read-out: anti-proliferative IC50. The method, then: (§1) Cell viability assays: Cells were seeded in 96-well plates (2×10^3 cells/well) one day before the treatment. Cells were treated with varying concentrations of ERX-41 or ERX-11 analogs for 3-6 days. Then effects of ERX-41 or ERX-11 analogs on cell viability were measured in triplicate or sextuplicate with multiple biological replicates using the WST-1 (Promega), MTT as previously described^33 or CellTiter-Glo 2.0 (Promega) assays.

Data set [2] concerns TNBC cells (SUM-159, MDA-MB-231). The data set is described as follows: MTT cell viability, TNBC cells. Format: cell-based, Human. The method, then: as §1
The target of the next data set is T1, ER Alpha-LBD (GST) (Homo sapiens, UniProt P03372).
T1 construct: 3.5 nM ER Alpha-LBD (GST); purchased life technologies A15885
T1 sequence (P03372 311-547 limits assumed): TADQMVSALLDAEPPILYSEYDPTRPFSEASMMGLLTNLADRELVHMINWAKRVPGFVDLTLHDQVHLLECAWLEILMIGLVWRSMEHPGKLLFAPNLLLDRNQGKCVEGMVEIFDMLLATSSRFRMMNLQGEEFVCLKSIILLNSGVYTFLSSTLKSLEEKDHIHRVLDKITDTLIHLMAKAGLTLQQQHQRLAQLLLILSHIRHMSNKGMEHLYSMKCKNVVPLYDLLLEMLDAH
The data set is described as follows: LanthaScreen TR-FRET ER alpha Coactivator Assay, antagonist mode. Format: binding. The following applies: 2 h incubation. (In general: In TR-FRET formats the signal depends on donor and acceptor labels being close together.)

Data set [3] relates to ERα-positive breast cancer cells (MCF-7, ZR-75). The settings on record: therapy-sensitive and therapy-resistant ERα-positive breast cancers; inventors' previous work; read-out: IC50, block of ERα signaling and ERα-driven proliferation; cited from earlier work.
For data set [4] the following is noted: earlier finding; cited from earlier work.
Data set [5] relates to ovarian cancer cells and breast cancer cells. The data set is described as follows: ERX-315 in cancer cell lines. The data set is classed as cell-based.
The test system of data set [6] is BC xenografts expressing the Y537S ERα mutant (ZR75, MCF7). The data set is described as follows: ERX-315 in therapy resistant BC xenografts (Y537S ERα mutant ZR75, MCF7). Format: in vivo, mouse.
Data set [7] can be described thus: ERX-315 in syngeneic D2A1 tumor model, organ evaluation. The settings on record: syngeneic D2A1 tumors. Format: in vivo, mice.
In another data set the target is T2, LAL lipase activity (Homo sapiens, UniProt P38571).
T2 construct: heat stability of LAL or vinculin protein in SUM-159 cells; endogenous in cells; host or cells: SUM-159
T2 sequence (P38571 77-399): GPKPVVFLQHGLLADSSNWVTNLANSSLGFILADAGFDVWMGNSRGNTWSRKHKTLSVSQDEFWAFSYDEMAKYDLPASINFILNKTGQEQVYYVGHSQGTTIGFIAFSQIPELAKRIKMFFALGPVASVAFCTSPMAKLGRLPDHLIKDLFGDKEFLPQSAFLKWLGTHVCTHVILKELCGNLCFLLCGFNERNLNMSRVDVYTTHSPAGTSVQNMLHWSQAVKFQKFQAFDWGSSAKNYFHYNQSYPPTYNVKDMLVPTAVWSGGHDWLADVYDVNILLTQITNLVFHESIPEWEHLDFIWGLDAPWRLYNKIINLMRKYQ
The data set is described as follows: Lipase activity assay (4-MUP), SUM-159 cell lysate. The data set is classed as biochemical. Here is the method: Lipase activity assay: Lipase activity assays were performed as described previously (Dairaku, et al)^37. Briefly, a 0.345 mM substrate solution was prepared from 1.2 mL of 13.3 mM 4-MUP and 42 mL of 100 mM sodium acetate buffer pH 4.0, 1.0% (v/v) Triton X-100 and 3.0 mL of 0.5% (w/v) cardiolipin. For the enzyme reaction, 50 μL of the substrate in buffer solution, 40 μL of diluted cell lysate and 10 μL of DMSO or 30 μM Lalistat2 or 30 μM ERX-41 were combined in a black 96-well plate. The plates were sealed with an adhesive aluminum film and incubated in a 37° C. incubator for 1 h. The reactions were terminated using 200 μL of 150 mM EDTA at pH 11.5. The fluorescence of the plates were read immediately with synergy H1 fluorescence microplate reader (BioTek) using a 365-nm excitation filter and a 450-nm emission filter. The LIPA lipase activity was calculated by subtracting the enzymatic activity of the inhibited (with Lalistat2) reaction from that of the uninhibited (without Lalistat2) reaction.

The subject of the next data set is TNBC. The data set is described as follows: ER stress, cell death and lysosomes in TNBC (discussion, no method). Format: cell-based.
The test system of data set [8] is SUM-159 cells with LIPA KO. The data set is described as follows: UPR induction and protein synthesis in SUM-159 cells with LIPA KO (RNA-seq, RT-qPCR, western). Format: cell-based, Human. The settings on record: known ER stress inducers. The method, then:
Western blotting: Whole cell lysates from breast cancer cells were prepared with 2× sample buffer (60 mM Tris-HCl, pH 6.8, 2% sodium dodecyl sulfate, 10% glycerol), and before loading mixed with loading buffer (5% 2-mercaptoethanol, 0.1% bromophenol blue) and boiled for denaturation, as previously described.^33 Proteins were separated by SDS-PAGE and subjected to Western analysis using antibodies. To detect nascent translated proteins, puromycin (final concentration 10 μg/mL) was added into cell plates 30 minutes before harvesting cells. Then samples were subjected to the Western blotting. Nascent proteins were detected by anti-puromycin antibody.
Real-time quantitative PCR (RT-qPCR): Total RNA was prepared from breast cancer cells using the RNeasy Mini Kit (Qiagen) according to the manufacturer protocols. Subsequently, total RNAs were reverse transcribed into cDNA using iScript Reverse Transcription Supermix (Bio-rad) and by using SYBR Green on an Illumina Real-Time PCR system.
RNA-sequencing: mRNA-seq sequencing library construction was performed using TruSeq RNA Library Preparation Kit (Illumina) according to the manufacturer's instructions. FASTQ reads from Genomics Core at UTSW were mapped to Human GRCh38 genome using HiSAT2 (RRID:SCR_015530). Differential expression analysis is performed using DEseq2 (RRID:SCR_015687). Abundances of transcripts are calculated using ballgown (Frazee et al. 2014). The values of Fragments Per Kilobase of transcript per Million mapped reads (FPKM) were used for Gene Set Enrichment Analysis (GSEA). GSEA was performed by using the GSEA software (RRID:SCR_005724) and C5 ontology gene sets (14765 gene sets in total). mRNA-seq data from this study are available from NCBI GEO under accession #GSE168800.

Turning to `CC(C)COc1cc(C(N)=O)ccc1NC(=O)c1ccc(NC(=O)c2ccc([N+](=O)[O-])c(OCCO)c2)c(OCC(C)C)c1` [ERX-11, reference compound], the IC50 was 200 to 500 nM in data set [1]; greater than 10000 nM in data set [2] (MTT, SUM-159 and MDA-MB-231, read-out: IC50 against TNBC cells); 200 to 500 nM in data set [3]. In addition, the “anti-tumor activity in TNBC cells” value in data set [2] (TNBC cells (lack expression of ERα)) is given as “did not show anti-tumor activity”. Also, at ER Alpha-LBD (GST), the “interaction with ERα LBD” value was “interact with ERG LBD”. Further, the oral bioavailability result in data set [4] is recorded as “orally bioavailable”.

For `CC(C)COc1cc(C(=O)Nc2ccc(C(=O)N[C@H]3CC[C@H](C(=O)Nc4cnc5ccccc5c4)CC3)cc2OCC(C)C)ccc1NC(=O)c1ccc(F)c(OCCO)c1` [ERX-315], the “effectiveness in cell culture models of cancer” value in data set [5] (FIG. 17) was “effective in each cell line tested”. In addition, in data set [5] (read-out: IC50 against ovarian cancer cells and breast cancer cells), the IC50 is 10 to 50 nM. The “Ki67 proliferation indices of tumors” value in data set [6] (histologic evaluation) was “dramatically decreased K167 proliferation indices”. Also, in [6] (oral, captisol formulation, listed as TK315), the “activity against therapy resistant BC xenografts” value is “decreased the growth and tumor weight; also recorded: potent activity”. The “mouse liver or body weight” value in data set [6] (oral, listed as TK315) is “No change in body weight; also recorded: no effect on mouse liver or body weight”. In [7], the “immunogenicity, immune infiltrates in spleen, lymph nodes, kidney, liver” value was “not immunogenic”.

Regarding `O=C(Oc1nsnc1N1CCCCC1)N1CCCCC1` [Lalistat 2], at LAL lipase activity (LIPA-KO cells), the “lipase function (other lipases) in LIPA-KO cells” value was “lack of inhibitory activity on lipase function”. For the same compound, the “lipase activity of LIPA” value on LAL lipase activity (SUM-159 cells, 30 μM) was “attenuated lipase activity”. Also, the “induction of ER stress or cell death in TNBC” value in the data set with TNBC was “does not induce ER stress or cell death in TNBC”.

On to `C[C@]12CC[C@@H]3c4ccc(O)cc4C[C@@H](CCCCCCCCC[S+]([O-])CCCC(F)(F)C(F)(F)F)[C@H]3[C@@H]1CC[C@@H]2O` (stereo partly drawn) [fulvestrant], for which the “interaction with ERα LBD” value on ER Alpha-LBD (GST) was “interact with ERG LBD”.

In the case of `C/C=C(/C)C(=O)O[C@H]1C(C)=C2[C@H]([C@@H]1OC(=O)CCCCCCC)[C@@](C)(OC(C)=O)C[C@H](OC(=O)CCC)[C@@]1(O)[C@H]2OC(=O)[C@@]1(C)O` [thapsigargin, reference compound], in [8], the “inducibility of UPR genes in LIPA KO cells” value is “preserved”.

With tunicamycin [reference compound], in data set [8], the “inducibility of UPR genes in LIPA KO cells” value is “preserved”.
